Results as given in ChEMBL document CHEMBL5705887, “Distinct concentration-dependent effects of the polo-like kinase 1-specific inhibitor GSK461364A, including differential effect on apoptosis” (Cancer Res, 2009).
The source made the active and inactive calls. The rule behind the calls is not given here.

Tests used:
ZR-75-1 [1] = experiment: Growth inhibition of human ZR-75-1 cells assessed as viable cells at 250 nmol/L measured immediately by celltiter-glo assay; format: functional; settings: read-out: Activity
[2] = target: Calcium/calmodulin-dependent protein kinase type II subunit gamma (Homo sapiens) (UniProt Q13555); experiment: Inhibition recombinant human CAMKII-gamma at 10 uM relative to control
Chain of Calcium/calmodulin-dependent protein kinase type II subunit gamma (Homo sapiens) (Q13555 whole entry): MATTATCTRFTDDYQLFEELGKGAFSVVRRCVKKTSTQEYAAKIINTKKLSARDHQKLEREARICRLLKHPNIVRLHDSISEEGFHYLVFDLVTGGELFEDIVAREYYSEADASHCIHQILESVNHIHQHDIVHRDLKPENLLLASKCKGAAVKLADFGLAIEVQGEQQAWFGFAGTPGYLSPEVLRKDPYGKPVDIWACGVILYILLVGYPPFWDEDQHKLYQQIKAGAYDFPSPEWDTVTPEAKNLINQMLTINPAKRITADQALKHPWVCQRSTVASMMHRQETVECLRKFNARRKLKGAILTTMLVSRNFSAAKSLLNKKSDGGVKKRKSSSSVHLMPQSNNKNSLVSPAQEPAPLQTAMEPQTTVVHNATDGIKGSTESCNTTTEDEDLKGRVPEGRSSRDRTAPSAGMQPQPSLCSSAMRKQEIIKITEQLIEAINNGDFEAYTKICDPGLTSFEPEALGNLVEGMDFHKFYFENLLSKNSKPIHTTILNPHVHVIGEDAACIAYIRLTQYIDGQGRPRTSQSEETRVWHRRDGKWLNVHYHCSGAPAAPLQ

COLO 205 [3] = experiment: Antiproliferative activity against human COLO 205 cells assessed as of viable cell signal at minimum maximum cell growth incubated for 72 hrs by celltiter-glo assay relative to control; format: functional
PC-3 [4] = experiment: Antiproliferative activity against human PC-3 cells assessed as viable cell signal at maximum growth inhibition incubated for 72 hrs by celltiter-glo assay relative to control; format: functional
COLO 205 [5] = experiment: Antitumor activity against human COLO 205 cells xenografted in Nude mouse assessed as tumor growth delay time at 50 mg/kg, ip administered for 12 days; format: functional; settings: time 12 day
ZR-75-1 [6] = experiment: Antiproliferative activity against human ZR-75-1 cells assessed as growth inhibition incubated for 72 hrs by celltiter-glo assay; format: functional
A-431 = experiment: Antiproliferative activity against human A-431 cells assessed as viable cell signal at maximum growth inhibition incubated for 72 hrs by celltiter-glo assay relative to control; format: functional
NCI-H1299 [7] = experiment: Antiproliferative activity against human NCI-H1299 cells assessed as of viable cell signal at minimum maximum cell growth incubated for 72 hrs by celltiter-glo assay relative to control; format: functional
HT-29 = experiment: Antiproliferative activity against human HT-29 cells assessed as growth inhibition incubated for 72 hrs by celltiter-glo assay; format: functional
BXPC-3 [8] = experiment: Antiproliferative activity against human BXPC-3 cells assessed as of viable cell signal at minimum maximum cell growth incubated for 72 hrs by celltiter-glo assay relative to control; format: functional
[9] = target: Fibroblast growth factor receptor 3 (Homo sapiens) (UniProt P22607); experiment: Inhibition of N-terminal his6-tagged recombinant human FGFR3 (447 to 761 residues) expressed in baculovirus Sf21 insect cells at 10 uM relative to control
Chain of Fibroblast growth factor receptor 3 (Homo sapiens) (P22607 23-806 limits assumed): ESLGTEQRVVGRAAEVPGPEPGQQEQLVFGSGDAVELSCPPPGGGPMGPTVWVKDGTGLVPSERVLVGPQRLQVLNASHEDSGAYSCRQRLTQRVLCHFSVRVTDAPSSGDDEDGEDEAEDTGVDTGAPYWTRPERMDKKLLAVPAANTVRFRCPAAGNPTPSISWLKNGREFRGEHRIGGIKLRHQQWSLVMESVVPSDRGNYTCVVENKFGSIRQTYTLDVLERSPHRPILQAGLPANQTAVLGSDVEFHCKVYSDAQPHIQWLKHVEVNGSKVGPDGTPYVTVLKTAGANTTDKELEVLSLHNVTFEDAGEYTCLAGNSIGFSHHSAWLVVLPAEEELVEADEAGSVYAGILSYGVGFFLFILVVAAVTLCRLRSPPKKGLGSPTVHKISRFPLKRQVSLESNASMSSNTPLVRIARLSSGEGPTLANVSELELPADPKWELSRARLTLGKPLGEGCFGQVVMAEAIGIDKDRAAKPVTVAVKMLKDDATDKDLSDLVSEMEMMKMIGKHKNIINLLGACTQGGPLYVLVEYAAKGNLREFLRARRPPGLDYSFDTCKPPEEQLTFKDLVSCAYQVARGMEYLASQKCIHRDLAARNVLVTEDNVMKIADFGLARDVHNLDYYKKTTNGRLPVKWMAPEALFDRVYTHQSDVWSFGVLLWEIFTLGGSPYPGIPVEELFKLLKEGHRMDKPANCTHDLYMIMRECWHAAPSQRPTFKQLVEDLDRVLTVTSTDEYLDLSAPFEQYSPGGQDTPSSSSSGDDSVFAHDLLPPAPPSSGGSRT

BXPC-3 [10] = experiment: Antiproliferative activity against human BXPC-3 cells assessed as viable cell signal at maximum growth inhibition incubated for 72 hrs by celltiter-glo assay relative to control; format: functional
HCT-15 = experiment: Antiproliferative activity against human HCT-15 cells assessed as of viable cell signal at minimum maximum cell growth incubated for 72 hrs by celltiter-glo assay relative to control; format: functional
COLO 205 [11] = experiment: Antitumor activity against human COLO 205 cells xenografted in Nude mouse assessed as tumor growth delay time at 50 mg/kg, ip administered every 2 to 4 days; format: functional; settings: time 2-4 day
[12] = Cytotoxicity against human HUVEC cells assessed as inhibition of cell growth incubated for 72 hrs by celltiter-glo assay; format: toxicity, cell-based
MDA-MB-453 = experiment: Antiproliferative activity against human MDA-MB-453 cells assessed as growth inhibition incubated for 72 hrs by celltiter-glo assay; format: functional
A2780 = experiment: Antiproliferative activity against human A2780 cells assessed as of viable cell signal at minimum maximum cell growth incubated for 72 hrs by celltiter-glo assay relative to control; format: functional
HCC1954 = experiment: Antiproliferative activity against human HCC1954 cells assessed as growth inhibition incubated for 72 hrs by celltiter-glo assay; format: functional
HCT-116 = experiment: Antiproliferative activity against human HCT-116 cells assessed as of viable cell signal at minimum maximum cell growth incubated for 72 hrs by celltiter-glo assay relative to control; format: functional
BXPC-3 [13] = experiment: Antiproliferative activity against human BXPC-3 cells assessed as growth inhibition incubated for 72 hrs by celltiter-glo assay; format: functional
NCI-H358 = experiment: Antiproliferative activity against human NCI-H358 cells assessed as of viable cell signal at minimum maximum cell growth incubated for 72 hrs by celltiter-glo assay relative to control; format: functional
NCI-H727 = experiment: Antiproliferative activity against human NCI-H727 cells assessed as growth inhibition incubated for 72 hrs by celltiter-glo assay; format: functional
NCI-N87 [14] = experiment: Antiproliferative activity against human NCI-N87 cells assessed as of viable cell signal at minimum maximum cell growth incubated for 72 hrs by celltiter-glo assay relative to control; format: functional
NCI-H1299 [15] = experiment: Antiproliferative activity against human NCI-H1299 cells assessed as viable cell signal at maximum growth inhibition incubated for 72 hrs by celltiter-glo assay relative to control; format: functional
OVCAR-8 = experiment: Antiproliferative activity against human OVCAR-8 cells assessed as viable cell signal at maximum growth inhibition incubated for 72 hrs by celltiter-glo assay relative to control; format: functional
MIA PaCa-2 = experiment: Antiproliferative activity against human MIA PaCa-2 cells assessed as of viable cell signal at minimum maximum cell growth incubated for 72 hrs by celltiter-glo assay relative to control; format: functional
BT-474 = experiment: Antiproliferative activity against human BT-474 cells assessed as of viable cell signal at minimum maximum cell growth incubated for 72 hrs by celltiter-glo assay relative to control; format: functional
[16] = target: Serine/threonine-protein kinase PLK3 (Homo sapiens) (UniProt Q9H4B4); experiment: Inhibition of N-terminal his6-tagged recombinant human PLK3 (19 to 301 residues) expressed in baculovirus Sf21 insect cells at 10 uM relative to control
Chain of Serine/threonine-protein kinase PLK3 (Homo sapiens) (Q9H4B4 whole entry, looked up, the tested form may be a part): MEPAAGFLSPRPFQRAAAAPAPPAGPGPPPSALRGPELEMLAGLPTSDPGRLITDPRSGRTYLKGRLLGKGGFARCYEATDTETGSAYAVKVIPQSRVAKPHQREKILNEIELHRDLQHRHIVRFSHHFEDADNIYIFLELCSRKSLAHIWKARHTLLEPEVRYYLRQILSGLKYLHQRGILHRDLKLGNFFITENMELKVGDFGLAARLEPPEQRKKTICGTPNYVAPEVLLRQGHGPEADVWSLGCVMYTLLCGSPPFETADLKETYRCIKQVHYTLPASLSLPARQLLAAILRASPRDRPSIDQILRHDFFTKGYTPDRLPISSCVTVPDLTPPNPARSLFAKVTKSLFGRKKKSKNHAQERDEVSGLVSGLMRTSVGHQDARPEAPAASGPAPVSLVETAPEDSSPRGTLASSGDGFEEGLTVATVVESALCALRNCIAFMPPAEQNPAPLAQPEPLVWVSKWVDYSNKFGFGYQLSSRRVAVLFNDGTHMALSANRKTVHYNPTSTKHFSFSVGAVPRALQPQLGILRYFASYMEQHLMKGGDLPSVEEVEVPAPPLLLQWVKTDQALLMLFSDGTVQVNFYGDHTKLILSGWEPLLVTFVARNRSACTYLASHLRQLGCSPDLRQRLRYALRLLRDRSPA

MDA-MB-468 = experiment: Antiproliferative activity against human MDA-MB-468 cells assessed as of viable cell signal at minimum maximum cell growth incubated for 72 hrs by celltiter-glo assay relative to control; format: functional
MDA-MB-231 = experiment: Antiproliferative activity against human MDA-MB-231 cells assessed as of viable cell signal at minimum maximum cell growth incubated for 72 hrs by celltiter-glo assay relative to control; format: functional
[17] = Antiproliferative activity against human PL45 cells assessed as of viable cell signal at minimum maximum cell growth incubated for 72 hrs by celltiter-glo assay relative to control; format: functional
[18] = Antiproliferative activity against human PL45 cells assessed as growth inhibition incubated for 72 hrs by celltiter-glo assay; format: functional
PANC-1 = experiment: Antiproliferative activity against human PANC-1 cells assessed as viable cell signal at maximum growth inhibition incubated for 72 hrs by celltiter-glo assay relative to control; format: functional
COLO 205 [19] = experiment: Antitumor activity against human COLO 205 cells xenografted in Nude mouse assessed as tumor regression at 50 mg/kg, ip administered one dose every 2 day repeated for 12 days; format: functional, organism-based; settings: time 12.0 day
NCI-N87 [20] = experiment: Antiproliferative activity against human NCI-N87 cells assessed as viable cell signal at maximum growth inhibition incubated for 72 hrs by celltiter-glo assay relative to control; format: functional
COLO 205 [21] = experiment: Antitumor activity against human COLO 205 cells xenografted in Nude mouse assessed as increase in pIk1 level at 50 mg/kg, ip measured at 24 hrs by immunohistochemistry analysis; format: functional, organism-based
PC-3 [22] = experiment: Antiproliferative activity against human PC-3 cells assessed as growth inhibition incubated for 72 hrs by celltiter-glo assay; format: functional
NCI-H1155 = experiment: Antiproliferative activity against human NCI-H1155 cells assessed as of viable cell signal at minimum maximum cell growth incubated for 72 hrs by celltiter-glo assay relative to control; format: functional
U2OS = experiment: Induction of mitotic arrest in human U2OS cells assessed as effect on pHH3 level at 10 to 250 nmol/L incubated for 19 hrs by ELISA analysis; format: functional, cell-based; settings: dose 10-250 nmol/L

Q: Which viability at 0.25 µM (ZR-75-1 [1]) does the source give for C[C@@H](Oc1cc(-n2cnc3ccc(CN4CCN(C)CC4)cc32)sc1C(N)=O)c1ccccc1C(F)(F)F [GSK-461364] here?
A: 200%

Q: And the inhibition [2]?
A: 84%

Q: What about the Emin (COLO 205 [3]) of the same compound?
A: 102.6%

Q: What about the Emax (PC-3 [4]) of the same compound?
A: 582%

Q: What about the Time (COLO 205 [5]) of the same compound?
A: 62 days

Q: What about the GI50 (ZR-75-1 [6]) of the same compound?
A: 0.0465 µM

Q: What about the Emax (A-431) of the same compound?
A: 820%

Q: And the Emin (NCI-H1299 [7])?
A: 44.4%

Q: What about the GI50 (HT-29) of the same compound?
A: 0.0081 µM

Q: And the Emin (BXPC-3 [8])?
A: 103.3%

Q: And the inhibition [9]?
A: 60%

Q: What about the Emax (BXPC-3 [10]) of the same compound?
A: 278%

Q: And the Emin (HCT-15)?
A: 75%

Q: What about the Time (COLO 205 [11]) of the same compound?
A: 39 days

Q: What about the IC50 at 72 h [12] of the same compound?
A: 0.007 µM

Q: What about the GI50 (MDA-MB-453) of the same compound?
A: 0.0135 µM

Q: What about the Emin (A2780) of the same compound?
A: 68.5%

Q: What about the GI50 (HCC1954) of the same compound?
A: 0.0141 µM

Q: And the Emin (HCT-116)?
A: 157.3%

Q: And the GI50 (BXPC-3 [13])?
A: 0.0231 µM

Q: And the Emin (NCI-H358)?
A: 150%

Q: And the GI50 (NCI-H727)?
A: 0.0452 µM

Q: What about the Emin (NCI-N87 [14]) of the same compound?
A: 321.5%

Q: What about the Emax (NCI-H1299 [15]) of the same compound?
A: 495%

Q: And the Emax (OVCAR-8)?
A: 567%

Q: What about the Emin (MIA PaCa-2) of the same compound?
A: 100.2%

Q: And the Emin (BT-474)?
A: 217%

Q: And the inhibition [16]?
A: 64%

Q: What about the Emin (MDA-MB-468) of the same compound?
A: 182.2%

Q: And the Emin (MDA-MB-231)?
A: 37%

Q: What about the Emin [17] of the same compound?
A: 101.2%

Q: What about the GI50 [18] of the same compound?
A: 0.0219 µM

Q: What about the Emax (PANC-1) of the same compound?
A: 530%

Q: And the Activity (COLO 205 [19])?
A: Active

Q: And the Emax (NCI-N87 [20])?
A: 776%

Q: And the Activity (COLO 205 [21])?
A: Active

Q: What about the GI50 (PC-3 [22]) of the same compound?
A: 14.7 µM

Q: What about the Emin (NCI-H1155) of the same compound?
A: 119.2%

Q: And the Activity (U2OS)?
A: Active
